Data: patent US20240408214A1, “NANOPARTICULATE MONOBENZONE FOR TREATING MELANOMA” (Northwestern University, priority 2021, published 2024)
pIC50: −log10 of the molar value.

Legend:
[1] = system: TRP-1+ melanocytes in C57BL/6 skin; assay: Detection of TRP-1+ melanocytes in topically treated mouse skin (FIG. 2); format: in vivo; settings: 1.5 M topical for 6 weeks
Excerpt: FIG. 2. Melanocytes are undetectable in mouse skin topically treated with MBEH. TRP-1^+ melanocytes (arrows) are detected in control animals but not in C57BL/6 skin treated with 1.5 M MBEH for 6 weeks.

[2] = system: B16-F10 mouse melanoma cells; assay: Tumor volumes in mice pretreated topically and challenged with B16-F10 cells (FIG. 1); format: in vivo; settings: 1.5 M topical for 3 weeks before challenge with 5×10^5 B16-F10 cells; p<0.05
[3] = cited from earlier work
B16-F10 tumors = assay: CD8 T cell infiltration in B16-F10 tumors of mice pretreated topically (FIG. 6); format: in vivo, mouse; settings: mice pretreated topically with 1.5 M MBEH vs without; n=3, p<0.01
M14 melanoma cells = assay: Change in viable cell numbers of M14 melanoma cells over the treatment period (FIG. 9); format: cell-based; settings: 100 μM, 24 h, untreated cells gained 96% viable cells
Protocol: FIG. 9. First panel: Single cell functional proteomics data indicates functional heterogeneity when comparing the effects of free and nanoparticulate MBEH on cellular functions among live cells. Adherent M14 melanoma cells were incubated for 24 h with 100 μM of free MBEH (a), nanoparticulate monobenzone with lauroyl MBEH-loaded liposomes (b), MBEH-loaded MOF nanoparticles (c) or vehicle alone (d) before being harvested and loaded into individual wells of the respective Isocode chips (˜30,000 cells/sample) to measure the presence of phosphorylated proteins among individual, live cells by IsoPlexis functional proteomics. […] The decreases in cell-proliferation pathways are even more than those observed in cells that have been exposed to the free MBEH. The individual phosphoproteins measured (results are shown for ˜300 live, single cells per group) are categorized as shown in the legend. The most profound effect on cell signaling was found in presence of long-tailed MBEH. Over the treatment period, untreated cells gained 96% viable cells, whereas cell numbers were reduced by 45, 29 and 1% respectively in response to the free drug, MBEH-loaded MOFs and liposomes loaded with lauroyl MBEH, respectively. Functional heterogeneity among treatments was driven by PARP, P-eIF4α and ribosomal P-S6. Second panel: Viability changes of M14 melanoma cells shown between 24-48 h of treatment. […]

[4] = system: Transfected HEK cells and B16-F10 melanoma cells; assay: MTT cytotoxicity in HEK cells transfected with melanosomal enzymes and in B16-F10 cells (FIG. 3); format: cell-based; settings: 250 μM, 24 h, MTT assay
Protocol: Transfected HEK cells and B16-F10 melanoma cells were exposed to 250 μM of MBEH for 24 h before cytotoxicity was measured via MTT assay.

B16 melanoma cells = assay: cells; settings: Mus musculus, B16, 24 h, read-out: half-maximum cytotoxicity (IC50) concentration
Protocol: FIG. 8. […] Free MBEH or lauroyl-MBEH-loaded liposomes were added to B16 melanoma cells in culture. After 24 h, the viability among the remaining cells was measured at different nanoparticle concentrations.

Oc1ccc(OCc2ccccc2)cc1 [MBEH, monobenzyl ether of hydroquinone]
TRP-1+ melanocytes in skin [1]: undetectable
tumor growth (tumor volumes) [2]: prevents tumor growth
solubility in water [3]: highly insoluble in water
number of cytotoxic (CD8) T cells in tumors, enhancement after exposure (B16-F10 tumors): 4.7 fold
cell numbers reduced over the treatment period (M14 melanoma cells): 45%
cytotoxicity mediated by melanosomal enzymes [4]: All enzymes but MART-1 can mediate cytotoxicity
pIC50 (B16 melanoma cells): ~3.30
